Here are results for two compounds from US20200323838A1, “LENALIDOMIDE IMMEDIATE RELEASE FORMULATIONS” (Synbias Pharma AG, priority 2017, published 2020).

Data set [1] is described as follows: Dissolution of hard gelatin capsules (Xtend Sotax dissolutor, HPLC detection). The format is physicochemical. The source says:
Micronized lenalidomide form A (d(0.5)=10 μm) was mixed with microcrystalline cellulose in a ratio 1:10, filled manually in Size 2 HGC and analyzed for dissolution. Dissolution experiments were run in Xtend Sotax dissolutor, in phosphate buffer pH 6.5 and 0.01 HCl pH 1.8. Sampling time intervals were 10, 15, 20, min. In house developed isocratic HPLC analytical method was used for detection of lenalidomide in dissolution media.
Non-micronized lenalidomide form A (d(0.5)=30 μm) was mixed with microcrystalline cellulose in a ratio 1:10, filled manually in Size 2 HGC and analyzed for dissolution. Dissolution experiments were run in Xtend Sotax dissolutor, in phosphate buffer pH 6.5 and 0.01 HCl pH 1.8. Sampling time intervals were 10, 15, 20, min. In house developed isocratic HPLC analytical method was used for detection of lenalidomide in dissolution media.
20 mg of non-micronized lenalidomide form A were mixed with 20 mg microcrystalline cellulose, 60 mg lactose monohydrate and, filled manually in size 2 HGC and analyzed for dissolution as in Example 1.
Formulation prepared according to Example 6 was used for comparative dissolution with Revlimid HGCs in 50 mM phosphate buffer pH 6.8. The results in Table 8 show there was no difference between dissolution profile of Revlimid and tested HGC. […]

For data set [2] the following is noted: high solubility, low permeability; cited from earlier work.
For data set [3] the following is noted: 0.1 HCl buffer (highest solubility); cited from earlier work.
For data set [4] the following is noted: cited from earlier work.
For data set [5] the following is noted: HCl buffer pH 1.8, containing 1% sodium lauryl sulfate; cited from earlier work.

Converted amounts (≈) assume the structure as drawn. Like-named read-outs stand apart in the source and are kept apart here. Where only a bound is given, the exact number is not on record here.

`Nc1cccc2c1CN(C1CCC(=O)NC1=O)C2=O` (stereo not drawn) [Lenalidomide, 3-(4-amino-1,3-dihydro-1-oxo-2H-isoindol-2-yl)-2,6-piperidine dione]: the “lenalidomide API dissolved in 10 min” value in data set [1] is recorded as at least 80%. Also, the BCS class entry in data set [2] is “class III”. Moreover, in data set [3], the solubility was 18.0 mg/mL (≈ 69.4 mM). Further, the “time to reach maximum serum concentration (Tmax)” value was 46.2 to 60 min in data set [4] (healthy volunteers, oral) and 71.4 min in data set [4] (patients with acute myeloid leukemia, oral administration, 25 mg).

Consider `Nc1cccc2c1CN(C1CCC(=O)NC1=O)C2=O` (stereo not drawn) [Polymorph B], for which the solubility in data set [5] was 5.8 mg/mL (≈ 22.4 mM).

By solubility is commonly meant how much of the substance goes into solution per volume.
